Test results published in patent publication US10160771B2, “Hepatitis C virus inhibitors and uses thereof in preparation of drugs” (priority 2014, dated 2018).

Tests used:
[1] = Cell Titer-fluor cell activity assay in HCV-1b replicon cells (CC50); type: cell-based
How it was run: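 CC50 derived by nonlinear fitting of inhibition % from Cell Titer-fluor signal (405/515 nm, 30 min). Cells: genotype 1b Con1 replicon carrying E1202G, T1280I, K1846T, seeded 8000/well with compound for 3 days, 37 °C, 0.5% DMSO; 6 points, 5-fold dilution, top 100, 10 or 1 nM, duplicates.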

[2] = system: HCV genotype 1a (HCV-1a) replicon cells; assay: HCV genotype 1a replicon luciferase assay (EC50); type: cell-based, hepatitis C virus genotype 1a (H77 clone); details: Hepatitis C virus, 72 h, 3 days, luciferase (Bright-Glo)
How it was run: (§1)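 EC50 values come from nonlinear fitting of inhibition derived from replicon luciferase signal. Cells (8000/well) were treated 3 days with duplicate 6-point, 5-fold dilutions, starting at 100, 10 or 1 nM, with 0.5% DMSO.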

[3] = system: HCV genotype 1b (HCV-1b) replicon cells; assay: HCV genotype 1b replicon luciferase assay (EC50); type: cell-based, hepatitis C virus genotype 1b (Con1 clone); details: Hepatitis C virus, 72 h, 3 days, luciferase (Bright-Glo)
How it was run: as §1

Row | Structure (SMILES) | CC50 at 3 days [1] [nM] | EC50 [2] [nM] | EC50 [3] [nM]
1 | COC(=O)N[C@H](C(=O)N1CCC[C@H]1c1ncc(-c2ccc(-c3ccc(-c4cnc([C@H]5C6CCC(C6)[C@@H]5C(=O)NCc5ccc(C(F)(F)F)nc5)[nH]4)cc3)cc2)[nH]1)C(C)C (stereo partly drawn) [AA_232_A] | > 1 | 1 to 10 | 0.001 to 0.1
2 | COC(=O)N[C@H](C(=O)N1CCC[C@H]1c1cnc(-c2ccc(-c3ccc(-c4ncc(C5C6CCC(C6)[C@H]5C(=O)N(NC(=O)OC)C(C)C)[nH]4)cc3)cc2C)[nH]1)C(C)C (stereo partly drawn) [AA_169_A] | > 5 | 1 to 10 | 0.001 to 0.1
3 | COC(=O)N[C@H](C(=O)N1CCCC1c1[nH]c(-c2ccc(-c3ccc(-c4cnc([C@@H]5CCCN5C(=O)[C@@H](NC(=O)OC)C(C)C)[nH]4)cc3)cc2)c2c1COC2)C(C)C (stereo partly drawn) [AG_060] | > 1 | 0.101 to 1 | 0.001 to 0.1
4 | COC(=O)N[C@H](C(=O)N1CCC[C@H]1c1ncc(-c2ccc(-c3ccc(-c4cnc(C5C6CCC(C6)[C@H]5C(=O)NC(C)c5cnccn5)[nH]4)cc3)cc2)[nH]1)[C@@H](C)OC (stereo partly drawn) [AA_281_B] | > 1 | 0.101 to 1 | 0.001 to 0.1
5 | COC(=O)N[C@H](C(=O)N1CCC[C@H]1c1ncc(-c2ccc(-c3ccc(-c4cnc(C5[C@H]6CC[C@H](C6)[C@H]5C(=O)NCc5cnccn5)[nH]4)cc3)cc2)[nH]1)C(C)C (stereo partly drawn) [AA_206_ENDOA2] | > 1 | 0.101 to 1 | 0.001 to 0.1
6 | COC(=O)N[C@H](C(=O)N1CCC[C@H]1c1ncc(-c2ccc(-c3ccc(-c4cnc(C5C6CCC(C6)[C@@H]5C(=O)NC(C)c5cccnc5)[nH]4)cc3)cc2)[nH]1)[C@@H](C)OC (stereo partly drawn) [AA_251_C] | > 1 | 10 to 100 | 1 to 10
7 | COC(=O)N[C@H](C(=O)N1CCC[C@H]1c1ncc(-c2ccc(-c3ccc(-c4cnc(C5C6CCC(C6)[C@@H]5C(=O)NC(C)c5cccnc5)[nH]4)cc3)cc2)[nH]1)C(C)OC (stereo partly drawn) [AA_251_B] | > 1 | 1 to 10 | 0.101 to 1
8 | COC(=O)N[C@H](C(=O)N1CCC[C@H]1c1[nH]c(-c2ccc(-c3ccc(-c4cnc([C@@H]5CCCN5C(=O)[C@@H](NC(=O)OC)[C@@H](C)OC)[nH]4)cc3)cc2)c2c1CCCC2)C(C)C [AG_067] | > 1 | 10 to 100 | 0.001 to 0.1
9 | COC(=O)N[C@H](C(=O)N1CCC[C@H]1c1ncc(-c2ccc(-c3ccc(-c4cnc([C@H]5CCCC[C@@H]5C(=O)NCc5cncc(C)c5)[nH]4)cc3)cc2)[nH]1)C(C)C [AA_184] | > 5 | 10 to 100 | 0.101 to 1
10 | COC(=O)N[C@H](C(=O)N1CCC[C@H]1c1ncc(-c2ccc(-c3ccc(-c4cnc(C5C6CCC(C6)[C@@H]5C(=O)N(NC(=O)OC)C(C)C)[nH]4)cc3)cc2Cl)[nH]1)C(C)C (stereo partly drawn) [AA_156] | > 1 | 1 to 10 | 0.001 to 0.1
11 | COC(=O)N[C@H](C(=O)N1CCC[C@H]1c1ncc(-c2ccc(-c3ccc(-c4cnc([C@H]5C6CCC(C6)[C@@H]5C(=O)NCCc5ccccn5)[nH]4)cc3)cc2)[nH]1)C(C)C (stereo partly drawn) [AA_202] | > 1 | 1 to 10 | 0.001 to 0.1
12 | COC(=O)N[C@H](C(=O)N1CC2(CC2)C[C@H]1c1ncc(-c2ccc(-c3ccc(-c4[nH]c([C@@H]5CCCN5C(=O)[C@@H](NC(=O)OC)[C@@H](C)OC)c5c4COC5)cc3)cc2)[nH]1)C(C)C [AG_117] | > 1 | 0.101 to 1 | 0.001 to 0.1
13 | COC(=O)N[C@H](C(=O)N1CCC[C@H]1c1ncc(-c2ccc(-c3ccc(-c4cnc(C5C6CCC(C6)[C@@H]5C(=O)NCCO)[nH]4)cc3)cc2)[nH]1)[C@@H](C)OC (stereo partly drawn) [AA_220_B] | > 1 | 10 to 100 | 1 to 10
14 | COC(=O)N[C@H](C(=O)N1CCC[C@H]1c1ncc(-c2ccc(-c3ccc(-c4cnc(C5C6CCC(C6)[C@H]5C(=O)NCc5ccc(C(F)(F)F)nc5)[nH]4)cc3)cc2)[nH]1)[C@@H](C)OC (stereo partly drawn) [AA_264_B] | > 1 | 10 to 100 | 0.101 to 1
15 | COC(=O)N[C@H](C(=O)N1CCC[C@H]1c1ncc(-c2ccc(-c3ccc(-c4cnc([C@H]5C6CCC(C6)[C@@H]5C(=O)NCc5cccnc5)[nH]4)cc3)cc2C)[nH]1)C(C)C (stereo partly drawn) [AA_211_A] | > 1 | 1 to 10 | 0.001 to 0.1
16 | COC(=O)N[C@H](C(=O)N1CCC[C@H]1c1ncc(-c2ccc(-c3ccc(-c4cnc(C5C6CCC(C6)[C@@H]5C(=O)NCc5ccncc5)[nH]4)cc3)cc2)[nH]1)[C@@H](C)OC (stereo partly drawn) [AA_248_B] | > 1 | 10 to 100 | 0.101 to 1
17 | COC(=O)N[C@H](C(=O)N1CCC[C@H]1c1ncc(-c2ccc(-c3ccc(-c4cnc(C5C6CCC(C6)[C@H]5C(=O)NCc5ccc(OC)nc5)[nH]4)cc3)cc2)[nH]1)[C@@H](C)OC (stereo partly drawn) [AA_223_A] | > 1 | 10 to 100 | 0.101 to 1

Row | Structure (SMILES) | CC50 at 3 days [1] [nM] | EC50 [2] [nM] | EC50 [3] [nM]
18 | COC(=O)N[C@H](C(=O)N1CCC[C@H]1c1ncc(-c2ccc(-c3ccc(-c4cnc([C@@H]5C6CCC(C6)[C@H]5C(=O)NCc5ccc(N)cc5)[nH]4)cc3)cc2)[nH]1)C(C)C (stereo partly drawn) [AA_210_B] | > 1 | 10 to 100 | 0.001 to 0.1
19 | COC(=O)N[C@H](C(=O)N1CCC[C@H]1c1ncc(-c2ccc(-c3ccc(-c4cnc([C@H]5C6CCC(C6)[C@@H]5C(=O)NCc5cccnc5F)[nH]4)cc3)cc2)[nH]1)C(C)C (stereo partly drawn) [AA_224_A] | > 1 | 1 to 10 | 0.001 to 0.1
20 | COC(=O)N[C@H](C(=O)N1CCC[C@H]1c1ncc(-c2ccc(-c3ccc(-c4cnc([C@@H]5[C@H]6CC[C@H](C6)[C@H]5C(=O)N[C@@H](C)c5cnccn5)[nH]4)cc3)cc2)[nH]1)C(C)C [AA_270_ENDOA2_A] | > 1 | 0.001 to 0.1 | 0.001 to 0.1
21 | COC(=O)N[C@H](C(=O)N1CCC[C@H]1c1ncc(-c2ccc(-c3ccc(-c4cnc([C@@H]5C6CCC(C6)[C@H]5C(=O)NC(C)c5cccnc5)[nH]4)cc3)cc2)[nH]1)C(C)C (stereo partly drawn) [AA_204_B] | > 1 | 1 to 10 | 0.001 to 0.1
22 | COC(=O)N[C@H](C(=O)N1CC2(CC2)C[C@H]1c1ncc(-c2ccc(-c3ccc(-c4[nH]c([C@@H]5CCCN5C(=O)[C@@H](NC(=O)OC)[C@@H](C)OC)c5c4COC5)cc3)cc2)[nH]1)[C@@H](C)OC [AG_116] | > 1 | 0.001 to 0.1 | 0.001 to 0.1
23 | COC(=O)N[C@H](C(=O)N1CCC[C@H]1c1ncc(-c2ccc(-c3ccc(-c4cnc([C@@H]5[C@H]6CC[C@H](C6)[C@H]5C(=O)N[C@H](C)c5cnccn5)[nH]4)cc3)cc2)[nH]1)C(C)C [AA_270_ENDOA2_B] | > 1 | 1 to 10 | 0.001 to 0.1
24 | COC(=O)N[C@H](C(=O)N1CCC[C@H]1c1ncc(-c2ccc(-c3ccc(-c4cnc(C5C6CCC(C6)[C@@H]5C(=O)NCc5cccc(N)c5)[nH]4)cc3)cc2)[nH]1)[C@@H](C)OC (stereo partly drawn) [AA_226] | > 1 | 10 to 100 | 0.001 to 0.1
25 | COC(=O)N[C@H](C(=O)N1CCC[C@H]1c1ncc(-c2ccc(-c3ccc(-c4cnc(C5C6CCC(C6)[C@H]5C(=O)NCCc5ccncc5)[nH]4)cc3)cc2)[nH]1)[C@@H](C)OC (stereo partly drawn) [AA_266_B] | > 1 | 10 to 100 | 0.101 to 1
26 | COC(=O)N[C@H](C(=O)N1CCC[C@H]1c1ccc(-c2ccc(-c3ccc(-c4cnc([C@@H]5CCCN5C(=O)[C@@H](NC(=O)OC)C5CCCCC5)[nH]4)cc3)cc2)[nH]1)C(C)C [AG_101] | > 1 | 1 to 10 | 0.001 to 0.1
27 | COC(=O)N[C@H](C(=O)N1CCC[C@H]1c1ncc(-c2ccc(-c3ccc(-c4cnc(C5C6CCC(C6)[C@@H]5c5nc(-c6cccnc6)c[nH]5)[nH]4)cc3)cc2)[nH]1)C(C)C (stereo partly drawn) [AA_242] | > 1 | 10 to 100 | 0.101 to 1
28 | COC(=O)N[C@H](C(=O)N1CCC[C@H]1c1ncc(-c2ccc(-c3ccc(-c4[nH]c([C@H]5CCCN5C(=O)[C@@H](NC(=O)OC)[C@@H](C)OC)c5c4CCCC5)cc3)cc2)[nH]1)C(C)C [AG_078_B] | > 5 | 10 to 100 | 0.101 to 1
29 | COC(=O)N[C@H](C(=O)N1CCC[C@H]1c1ncc(-c2ccc(-c3ccc(-c4cnc(C5C6CCC(C6)[C@@H]5C(=O)NCc5ccc(C(C)C)nc5)[nH]4)cc3)cc2)[nH]1)[C@@H](C)OC (stereo partly drawn) [AA_265_A] | > 1 | 10 to 100 | 0.101 to 1
30 | COC(=O)N[C@H](C(=O)N1CCCC1c1ncc(-c2ccc(-c3ccc(-c4[nH]c([C@@H]5CCCN5C(=O)[C@@H](NC(=O)OC)C(C)C)c5c4CCC5)cc3)cc2)[nH]1)C(C)C (stereo partly drawn) [AG_014_A] | > 10 | 1 to 10 | 0.001 to 0.1
31 | COC(=O)N[C@H](C(=O)N1CCC[C@H]1c1ncc(-c2ccc(-c3ccc(-c4cnc([C@H]5C6CCC(C6)C5C(=O)NCc5cccnc5)[nH]4)cc3)nc2)[nH]1)[C@@H](C)OC (stereo partly drawn) [AA_242_A] | > 1 | 10 to 100 | 0.101 to 1
32 | COC(=O)N[C@H](C(=O)N1CCC[C@H]1c1ncc(-c2ccc(-c3ccc(-c4cnc(C5C6CCC(C6)[C@H]5C(=O)N(C)c5ccccn5)[nH]4)cc3)cc2)[nH]1)[C@@H](C)OC (stereo partly drawn) [AA_247_B] | > 1 | 1 to 10 | 0.001 to 0.1
33 | COC(=O)N[C@H](C(=O)N1CCCC[C@H]1c1ncc(-c2ccc(-c3ccc(-c4[nH]c([C@@H]5CCCN5C(=O)[C@@H](NC(=O)OC)C(C)OC)c5c4COC5)cc3)cc2)[nH]1)C(C)C (stereo partly drawn) [AG_123] | > 1 | 1 to 10 | 0.001 to 0.1
